Source: BindingDB's records for doi:10.1021/jm030092d (Research Triangle Institute, 2003)

Assay: Inhibition of binding of [3H]DADLE to Opioid receptor delta 1 in guinea pig membranes
Compound C[C@H]1CN(C/C=C/c2ccccc2)CC[C@@]1(C)c1cccc(O)c1 [3-[(3R,4R)-3,4-Dimethyl-1-((E)-3-phenyl-allyl)-piperidin-4-yl]-phenol] has a Ki of 322 nM.
Work on C[C@H]1CN(CC[C@H](O)C2CCCCC2)CC[C@@]1(C)c1cccc(O)c1 [3-[1-(3-Cyclohexyl-3-hydroxy-propyl)-3,4-dimethyl-piperidin-4-yl]-phenol] yielded a Ki of 198 nM.
With C[C@H]1CN(C/C=C/c2ccccc2Cl)CC[C@@]1(C)c1cccc(O)c1 [3-{(3R,4R)-1-[(E)-3-(2-Chloro-phenyl)-allyl]-3,4-dimethyl-piperidin-4-yl}-phenol] the Ki was 168 nM.
Compound Cc1ccccc1/C=C/CN1CC[C@@](C)(c2cccc(O)c2)[C@@H](C)C1 [RTI-5989-25] has a Ki of 142 nM.
